According to US20170354638A1, “BIXA ORELLANA COMPOSITION FOR THE TREATMENT MACULAR DEGENERATION” (BIOPHYTIS, priority 2011, published 2017):

Test system: primary cultures of adult porcine RPE cells
Assay: RPE cellular model of phototoxicity induced by A2E treatment followed by blue radiation illumination; cell survival
Assay type: cell-based
Details: for protective effect (cell survival vs control without A2E): concentrations of 0.1 and 1 μM, 48 h treatment, last 24 h with A2E, then blue light; for protection, percentage of survival compared to the control without A2E: 10 μM
Experimental: Given the very probable role of this mechanism in the development of AMD, the inventors used an in vitro cellular model of induced phototoxicity by the association of a treatment with A2E and illumination by blue light on RPE primary cell cultures wherein cell survival was measured. This model was developed by the Institute of Vision and allows for screening molecules aimed to discover new candidates for the treatment of dry AMD.
To test the photoprotective effect of the test substances, the inventors used a cellular model of induced phototoxicity by treatment with A2E followed by illumination with blue radiation. This model was produced from primary cultures of adult porcine RPE cells. Cell survival was determined by the ratio between the number of living cells and the total number of cells (alive+dead, respectively quantified using specific staining). Image acquisition was performed using a fluorescence microscope controlled by Metamorph software and quantifications were made by processing images acquired by a program dedicated quantification. The experiments were performed in 96-well microplates in quadruplicate and the experiment was repeated at least four times. Cells were treated for 48 hours with these compounds, the last 24 hours in the presence of A2E before induction of phototoxicity. Three concentrations (0.1, 1 and 10 μM) were tested for each compound. Some compounds were further tested at 20 μM to achieve a range of concentrations.

Structure (SMILES): CC(/C=C/C=C(\C)C(=O)O)=C\C=C\C=C(C)\C=C\C=C(/C)C(=O)O [Crocetin]
- protective effect (cell survival vs control without A2E): did not show a protective effect

Structure (SMILES): Oc1cc(O)c2cc(O)c(-c3ccc(O)c(O)c3)[o+]c2c1 [Cyanidin]
- protection, percentage of survival compared to the control without A2E: ~87%

Structure (SMILES): O=c1oc2c(O)c(O)cc3c(=O)oc4c(O)c(O)cc1c4c23 [Ellagic acid]
- protection, percentage of survival compared to the control without A2E: ~68%
- protection against phototoxicity (in words) (20 μM): protection similar to that measured at 10 μM
- protective effect (cell survival vs control without A2E): did not show a protective effect

Structure (SMILES): CC1=C[C@H](O)CC(C)(C)[C@H]1/C=C/C(C)=C/C=C/C(C)=C/C=C/C=C(C)/C=C/C=C(C)/C=C/C1=C(C)C[C@@H](O)CC1(C)C [Lutein, reference compound]
- protective effect (cell survival vs control without A2E): did not show a protective effect

Structure (SMILES): O=C1C[C@@H](c2ccc(O)cc2)Oc2cc(O)cc(O)c21 [Naringenin]
- protective effect (cell survival vs control without A2E): did not show a protective effect

Structure (SMILES): O=c1cc(-c2ccc(O)c(O)c2)oc2c([C@@H]3O[C@H](CO)[C@@H](O)[C@H](O)[C@H]3O)c(O)cc(O)c12 [Orientin]
- protective effect (cell survival vs control without A2E): did not show a protective effect

Structure (SMILES): Oc1ccc(C=Cc2cc(O)cc(O)c2)cc1 [Resveratrol, reference compound]
- protective effect (cell survival vs control without A2E): did not show a protective effect

Structure (SMILES): CC1=C(/C=C/C(C)=C/C=C/C(C)=C/C=C/C=C(C)/C=C/C=C(C)/C=C/C2=C(C)C[C@@H](O)CC2(C)C)C(C)(C)C[C@H](O)C1 [Zeaxanthin, reference compound]
- protective effect (cell survival vs control without A2E): did not show a protective effect
